# Assay results as given in US8765188B2, “Composition for treating and/or preventing osteoporosis” (Taipei Medical University, priority 2011, dated 2014).
# Marks after values point to notes of the source that are not given here.
# Tested on: ovariectomized rat model of osteoporosis
# Experiment: Bone histomorphometry of tibia trabecular bone with micro-CT
# Assay type: in vivo
# Conditions: OVX rats, DVAB composition 0.2 g/kg, positive 0.1 mg/5 ml/kg ethinylestridiol, 20 weeks
# Experimental: In an ovariectomized rat model of osteoporosis, rats were divided into sham (5 ml/kg ddH2O without ovariectomy) and ovariectomized (OVX) groups. The OVX rats were then subdivided into two groups orally treated with 5 ml/kg ddH2O (control group) and DVAB composition (0.2 g/kg) daily for 20 weeks. The positive group refers to rats receiving 0.1 mg/5 ml/kg of ethinylestridiol.
# Biomechanical strength also was measured by three-point bending test of femur and compression test of vertebra. Furthermore, the tibia from rats was measured by cancellous bone histomorphometry with micro-CT. In this study, percentage of bone volume (BV/TV), trabecular thickness (Tb, Th), trabecular number (Tb, N), trabecular separation (Tb, Sp) and structure model index (SMI) were measured.
smiles,measurement,value
"C#C[C@]1(O)CC[C@H]2[C@@H]3CCc4cc(O)ccc4[C@H]3CC[C@@]21C [Positive Control, ethinylestridiol]",BV/TV,25.69 +/− 10.41* %
same,SMI,1.29 +/− 0.52^#
same,Tb.N,0.0028 +/− 0.0010* 1/μm
same,Tb.Sp,255.99 +/− 94.24* μm
same,Tb.Th,90.29 +/− 4.01 μm
